Laboratory results reported in US20060084577A1, “Formulation and application of Indole-Derivatives for avoiding fruit and vegetable cracking” (priority 2004, published 2006).

System: sweet cherries, 'Schneiders' variety
Assay: Field trial of cracking of sweet cherries after application of Tryptophane on cherry trees
Format: in vivo, Prunus avium L.
Settings: for Number of Damaged Fruits / Percentage of Damaged Fruits: 20 and 29 Jun. 2002, 300 cherries sampled at harvest, evaluated Jul. 7, 2002 after heavy rainfall
Protocol: The following Experiments describe the results of field trials, showing the reducing effect on the cracking of cherries by applying Tryptophane on cherry trees. The influence of the application of the anti-cracking formulation of the present invention on cracking of sweet cherries, was tested on the commercially available ‘Schneiders’ variety of sweet cherry in Belgium during the 2002 growing season. The plant density was approximately 1,646 stems per acre (666 stems/hectare or “ha”). Two different amounts of Tryptophane were applied on the cherry tries and compared with an untreated control. • Experiment 1: Control Group (No treatment with the anti-cracking formulation.) • Experiment 2: 0.0223 lb/acre (25 g/ha) Tryptophane, on 20 Jun. 2002, and 0.0223 lb/acre (25 g/ha) Tryptophane, on 29 Jun. 2002. • Experiment 3: 0.0446 lb/acre (50 g/ha) Tryptophane, on 20 Jun. 2002, and 0.0446 lb/acre (50 g/ha) Tryptophane, on 29 Jun. 2002.
On Jun. 20, 2002, the plants of Experiment 1 and Experiment 2, as listed above, were treated in the evening, under sunny conditions, 71.6° F. (22° C.), and little wind. The cherries began to ripen. On Jun. 29, 2002, the plants of Experiment 1 and Experiment 2 were again treated in the evening, at sunny growth conditions, under slightly cloudy skies, 68° F. (20° C.), and moderate wind. The ripening of the cherries was fully underway.
An evaluation of the cherries in the above Experiments were made on Jul. 7, 2002, after heavy rainfall. For the Experiment's Results, as listed in TABLE 1, below, 300 cherries were randomly sampled at harvest, from which the number of intact and damaged cherries was determined.

[1] = 2* 0.0223 lb/acre (25 g/ha) Tryptophane
[2] = 2*0.0446 lb/acre (50 g/ha) Tryptophane

SMILES: N[C@@H](Cc1c[nH]c2ccccc12)C(=O)O [Tryptophane]
- Number of Damaged Fruits [1]: 78
- Percentage of Damaged Fruits [1]: 26%
- Number of Damaged Fruits [2]: 42
- Percentage of Damaged Fruits [2]: 14%
- reduction of the damage to the cherries (double application of 0.0446 lbs per acre (50 g per hectare), versus untreated control): approximately 50%
